We go through one compound from US20050049299A1, “Selective inhibitors of stat-3 activation and uses thereof” (priority 2003, published 2005).

What all share (type): cell-based, human
Assay [1] concerns STAT3 nuclear translocation. Briefly: STAT3 distribution in HNSCC cells (immunocytochemistry, Alexa fluorochrome). As to conditions: MDA 1986LN, MDA 686LN and JMAR cells, 50 μM, 2 hrs. As to the method:
MDA 1986LN, MDA 686LN and JMAR cells were incubated with either media alone or with curcumin (50 μM) for 2 hrs and then analyzed by immunocytochemistry using Alexa fluorochrome for the distribution of STAT3 (original magnification ×200). […] The same procedure as mentioned above was performed on the same cells and the p-STAT3 analyzed by immunocytochemistry using horse radish peroxidase stain (original magnification ×200).
Since STAT3 retained in the cytoplasm under resting conditions and in the non-phosphorylated state translocates to nucleus when phosphorylated, the effect of curcumin on the distribution of STAT3 was examined. To accomplish this, curcumin-treated and untreated MDA 1986LN, MDA 686LN and JMAR cells were analyzed for distribution of STAT3 by immunocytochemistry using ALEXA fluorochrome.

Assay [2] relates to MM.1R cells. As to the kind of experiment: IL-6-induced proliferation of MM.1R cells. The note with it: curcumin 10 μM, 48 h, serum-free. As to the method:
FIGS. 7A-B show& that IL-6 induces proliferation of human multiple myeloma cells and curcumin inhibits it. […] Cell proliferation assays were performed as described below. Results are shown as mean (±s.d.) of percent [^3H] thymidine incorporation or percent proliferation by MTT of triplicate cultures compared to the untreated control.
The antiproliferative effects of curcumin against different multiple myeloma cell lines were determined by the MTT dye uptake method as described earlier (28). Briefly, the cells (5000/well) were incubated in triplicate in a 96-well plate in the presence or absence of indicated test samples in a final volume of 0.1 ml for 24 h at 37° C. […] The OD at 570 nm was measured using a 96-well multiscanner autoreader (Dynatech MR 5000), with the extraction buffer serving as blank. Percent cell viability cell viability was calculated using the following formula: Percent cell viability=(OD of the experiment samples/OD of the control)×100.
The antiproliferative effects of curcumin were also monitored by the thymidine incorporation method. […] Six hours before the completion of experiment, cells were pulse treated with 0.5 μCi [^3H]thymidine, and the uptake of [^3H]thymidine was monitored using a Matrix-9600 β-counter (Packard Instruments, Downers Grove, Ill.). […]
Whether curcumin suppresses the proliferative effects of IL-6 was determined.

Assay [3] concerns STAT3 phosphorylation. As to the kind of experiment: IL-6-inducible STAT3 phosphorylation in RPMI 8226 cells (Western blot). As to the method: FIGS. 3A-C show& that IL-6 induces STAT3 phosphorylation in human multiple myeloma RPMI 8226 cells and curcumin inhibits it. […] U266, RPMI 8226, MM.1S, MM.1R and OCl cells (2×10^6) were lysed, and 30 μg of whole-cell extracts were resolved on 7.5% SDS-PAGE, electrotransferred to a nitrocellulose membrane, and probed for phosphorylated-STAT3 (upper panel) and STAT3 (lower panel). […] Thirty micrograms of whole cell extracts were resolved on 7.5% SDS-PAGE, electrotransferred to a nitrocellulose membrane, and probed for the phosphorylated-STAT3 (upper panel) and stripped and reprobed for STAT3 (middle panel) and β-actin (lower panel).
For detection of STAT proteins, whole-cell extracts were prepared by lysing the curcumin-treated cells in lysis buffer (20 mM Tris, pH 7.4, 250 mM NaCl, 2 mM EDTA, pH 8.0, 0.1% Triton-X100, 0.01 mg/ml aprotinin, 0.005 mg/ml leupeptin, 0.4 mM PMSF, and 4 mM NaVO4). Lysates were then spun at 14000 rpm for 10 min to remove insoluble material, and resolved on a 7.5% gel. After electrophoresis, the proteins were electrotransferred to a nitrocellulose membrane, blocked with 5% nonfat milk, and probed with anti-STAT antibodies (1:1000) overnight at 4° C. The blot was washed, exposed to HRP-conjugated secondary antibodies for 1 h, and finally examined by chemiluminescence (ECL, Amersham Pharmacia Biotech. Arlington Heights, Ill.).
Since IL-6 is a growth factor for multiple myeloma and induces STAT3 phosphorylation (5, 6, 15), whether curcumin could inhibit IL-6-induced STAT3 phosphorylation was examined. […] IL-6 induced phosphorylation of STAT3 as early as 5 min and began to decline at 60 minutes (FIG. 3B). RPMI 8226 cells were then incubated with curcumin for different times and examined for IL-6-inducible STAT3 phosphorylation.
Exposure of cells to curcumin for 4 hours was sufficient to completely suppress IL-6-induced STAT3 phosphorylation. Curcumin alone had no effect on STAT3 phosphorylation in these cells (data not shown).
(In general: A western blot detects proteins with antibodies after separation by electrophoresis.)

Assay [4] deals with MM.1S and MM.1R cells. As to the kind of experiment: Cell growth of dexamethasone-sensitive and dexamethasone-resistant MM cells (MTT). The note with it: curcumin 10 μM, 3 days. How it is done: MM.1S and MM.1R cells were cultured with dexamethasone (1 μM) in the absence or presence of curcumin (10 μM) for 3 days and cell viability was checked by the MTT method. Results are shown as mean (±s.d. indicated by error bar) of percent cell growth of triplicate cultures compared to the untreated control.
The antiproliferative effects of curcumin against different multiple myeloma cell lines were determined by the MTT dye uptake method as described earlier (28). Briefly, the cells (5000/well) were incubated in triplicate in a 96-well plate in the presence or absence of indicated test samples in a final volume of 0.1 ml for 24 h at 37° C. Thereafter, 0.025 ml of MTT solution (5 mg/ml in PBS) was added to each well. After a 2-h incubation at 37° C., 0.1 ml of the extraction buffer (20% SDS, 50% dimethylformamide) was added and the extract incubated overnight at 37° C. for solubilization of formazan crystals. The OD at 570 nm was measured using a 96-well multiscanner autoreader (Dynatech MR 5000), with the extraction buffer serving as blank. Percent cell viability cell viability was calculated using the following formula: Percent cell viability=(OD of the experiment samples/OD of the control)×100.
Multiple myeloma treated with dex gradually develops resistance to this drug.

Consider `COc1cc(/C=C/C(=O)CC(=O)/C=C/c2ccc(O)c(OC)c2)ccc1O` [curcumin, diferuloylmethane], for which the “translocation of STAT3 to the nucleus” value in assay [1] is given as “prevented the translocation of STAT3 to the nucleus”. In assay [2], the “IL-6-induced cell proliferation in MM.1R cells” value was “inhibited IL-6-induced cell proliferation”. Also, the “exposure sufficient to completely suppress IL-6-induced STAT3 phosphorylation” value in assay [3] (50 μM curcumin, IL-6 10 ng/ml 10 min) amounted to 4 h. Besides, the “effect of curcumin alone on STAT3 phosphorylation” value in assay [3] (without IL-6 (data not shown)) is reported as “no effect”. Also, in assay [4], the “proliferation of dex-resistant and dex-sensitive multiple myeloma cells” value is “inhibited the proliferation of dex-resistant and dex-sensitive multiple myeloma cells similarly”.
